Data reported in patent publication US20230416245A1, “ADENOSINE ANALOGS FOR THE TREATMENT OF DISEASE” (BIOINTERVENE, INC., priority 2020, published 2023).
pEC50: −log10 of the molar value.

Assays:
ADORA3 = ADORA3 (Homo sapiens (Human), UniProt P0DMS8); test: Intracellular calcium release assay (FLIPR); type: cell-based; settings: for pEC50: CHO-K1 cells, Fluo-4, top concentration 10 μM, read-out: Cell Calcium Assay EC50; for Cell Calcium Efficacy (%): percentage of the response to NECA
Description: Example 32: Intracellular Calcium Release Assay
Cell Culture: The table below lists the cell lines used that stably express the 4 subtypes of adenosine receptors, along with the growth medium used for each:
For experiments with the ADORA1- and ADORA3-expressing cells, the medium was aspirated and the cells washed twice with 10 mL DPBS. Two mL of trypsin was added and incubated at 37° C. for 1 minute. Then 10 mL of platting media was added to terminate the digestion and 1 mL of the solution was taken out for cell counting. ADORA2A- and ADORA2B-expressing cells were thawed rapidly in a 37° C. water bath. Cell suspensions were transferred to 50 mL conical tubes. Plating media was added to the 10 mL mark and then 1 mL taken out for cell counting. The 50 mL tubes containing the various types of cells were centrifuged at 1000 g. Then the supernatants were aspirated, being careful not to aspirate the cells. The cell pellets were resuspended in 3-5 mL platting media, then 0.5 mL was taken out for cell counting. Then the cell suspension was diluted to 1×10^6 cells/mL (20,000 cells per 20 μL per well) in platting medium, and cells were seeded into 384-well cell plates (Greiner-781946). The 384-well cell plate was placed in a 37° C./5% CO2 incubator (Thermo-371, Thermo Scientific) for 16-20 hours.
Preparation of the intracellular calcium imaging agent (Fluo-4 Direct™ Calcium Assay Kit, Invitrogen-F10471, Thermo Scientific): One mL of FLIPR Assay Buffer was added to 77 mg probenecid to make a 250 mM solution, which was used fresh for each day. One vial of Fluo-4 Direct™ crystals was thawed and 10 mL of FLIPR Assay Buffer was added to the vial. 0.2 mL of probenecid was added to each 10 mL vial of Fluo-Direct™ solution, such that the final assay concentration was 2.5 mM. It was vortexed, left to stand >5 min and protected from light. The dye was prepared fresh each day.
Compound Preparation: Compound plates were prepared as follows. First, the test compound was diluted to prepare a 2 mM solution and then 10-point 3-fold serial dilutions were made using ECHO (ECHO 555, LabCyte), then 900 nL was transferred to the compound plate. For all targets, the final top concentration of the test compound was […]. For agonist reference compounds, 10-point and 3-fold serial dilutions were made, then 900 nL was transferred to the assay plate. Then 30 μL of assay buffer was added to the compound plate and then the plate was centrifuged at 1000 rpm for 1 min.
FLIPR Assay: Cell plates were removed from the incubator, to which were added 20 μL 2×Fluo-4 Direct™ solution, then the plates were reincubated in a 5% CO2, 37° C. incubator for 50 min and at RT for 10 min. To run the protocol on the Fluorescent Imaging Plate Reader (FLIPR) TETRA (MD-FT0249, Molecular Devices, Inc.), 10 μL of assay buffer was transferred from the 384-well plate (Greiner-781280) to the cell plates and then the fluorescence signal was read. Then 10 μL of compound solution was transferred from the compound plate to the cell plates and the fluorescence signal was read. The “Max-Min” was calculated, starting from Read 91 to the maximum allowed. For agonists, activation %=(RLU−LC)/(HC−LC)*100, based on the following: RLU=relative light unit, 91 to maximum allowed signal; HC=average signal of the high concentration of agonist; LC=average signal of DMSO well. The data were fitted using GraphPad Prism 5, using the model “log(agonist) vs. response—Variable slope” to determine the EC50 value. The receptor efficacy of the test compound relative to the agonist NECA was calculated as a percentage (%) of the response to […]. Table 10 includes EC50 values for compounds described herein.

[1] = biological target: human adenosine A3 receptor (Homo sapiens (Human), UniProt P0DMS8); test: Intracellular cAMP levels (inhibition of forskolin-stimulated cAMP production); type: cell-based; settings: for pEC50: CHO cells expressing human adenosine A3 receptors, forskolin 10 μM; for CAMP Efficacy (%): maximal response as percentage of the response produced by 100 nM IB-MECA
Excerpt: Example 31: Intracellular cAMP Levels
The method followed is that published in Yates L, Clark J H, Martin T J, James S, Broadley K J, Kidd E J. Radioligand binding and functional responses of ligands for human recombinant adenosine A3 receptors. Auton Autacoid Pharmacol. 2006 April; 26(2):191-200.
Materials and Cell Culture: Adenosine deaminase was obtained from Roche (Lewes, UK). Forskolin was obtained from Sigma-Aldrich (Poole, UK). The sources of other materials are provided above in Example 1. CHO-K1 cells stably transfected with the human adenosine A3 receptor were grown in Dulbecco's modified Eagles medium with nutrient mixture F12 containing NaHCO3 and Glutamax. Media was supplemented with 10% fetal calf serum, geneticin (G418; 0.67 mg/mL), hygromycin (500 μg/mL) and adenosine deaminase (1 U/mL). Cells were maintained at 37° C. with 5% CO2 in air.
cAMP Measurements: Intracellular cAMP production was measured directly using a non-acetylation cAMP enzyme immunoassay (Amersham Biosciences, Little Chalfont, UK). Cultured CHO cells expressing human adenosine A3 receptors were allowed to plate overnight in 96-well plates in culture medium containing adenosine deaminase. Twenty-four hours later, they were incubated with adenosine analogues or compounds of the invention (0.1 nM-1 μM) for 5 min at 37° C., followed by incubation with forskolin (10 μM) for 10 min. The cells were then lysed with 200 μL of lysis reagent 1 provided with the kit for 10 min to release intracellular cAMP. Aliquots of the supernatants were then transferred to a 96-well microtitre plate coated with donkey anti-rabbit IgG; 100-μL cAMP standards (12.5-3200 fmol/well) were also added to the microtitre plate; 100 μL of rabbit anti-cAMP antibody was added to all wells and incubated at 2-5° C. for 2 h. The antiserum was made up in lysis reagent 2, which sequesters the key component in lysis reagent 1 and ensures that cAMP is free for subsequent analysis. Then 50 μL of cAMP peroxidase conjugate was added to all wells and left to incubate for 60 min at 2-5° C. to allow competition for the antibody between the un-labelled and horse radish peroxidase (HRP)-labelled cAMP. Wells were then washed with buffer and 150 μL of enzyme substrate containing 3,3′,5,5′-tetramethylbenzidine/hydrogen peroxide in 20% (v/v) dimethylformamide was added to each well and left to incubate for 60 min on a Titramax 100 microtitre plate shaker (Heidolph Instruments, Schwabach, Germany) at room temperature for color development. The reaction was stopped by the addition of 100 μL of 1 M sulfuric acid and the optical density (OD) read at 450 nm on a spectrophotometric MRX microplate reader (Dynex Technologies, Chantilly, VA, USA).
Analyses: Each sample/standard was analyzed in duplicate and the resulting OD values averaged. The percent bound (B/Bo) for each standard and sample was calculated using the following relationship: […]
where B is the specific OD for standard/sample and Bo is the specific OD for the zero standard. A standard curve was generated by plotting % B/Bo as a function of the log fmol cAMP standard per well. The fmol per well value for cAMP in each sample was then read from the graph. The results are expressed as a percent of control agonist response: (measured response/control response)*100 in the presence of the compounds of the invention. Concentration-response curves for inhibition of cAMP production were constructed for all compounds of the invention and reference compounds. The EC50 values (concentration producing a half-maximal response) were determined by non-linear regression analysis of the concentration-response curves generated with mean replicate values using Hill equation curve fitting, according to the equation:
where Y=response, A=left asymptote of the curve, D=right asymptote of the curve, C=compound concentration, and C50=EC50, and nH=slope factor. […]

human adenosine A3 receptor, sequence (P0DMS8 whole entry): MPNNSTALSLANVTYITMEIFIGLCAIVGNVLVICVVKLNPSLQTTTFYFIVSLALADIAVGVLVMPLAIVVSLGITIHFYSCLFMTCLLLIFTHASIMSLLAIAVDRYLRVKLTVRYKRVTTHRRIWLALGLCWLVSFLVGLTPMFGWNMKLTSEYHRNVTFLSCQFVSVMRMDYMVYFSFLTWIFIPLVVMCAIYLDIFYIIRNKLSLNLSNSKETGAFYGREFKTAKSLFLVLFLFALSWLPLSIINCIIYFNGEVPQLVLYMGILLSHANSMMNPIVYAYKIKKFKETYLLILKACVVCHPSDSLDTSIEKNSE
ADORA3, sequence (P0DMS8 whole entry): as above

| Compound | pEC50 (ADORA3) | Cell Calcium Efficacy (%) (ADORA3) | pEC50 [1] | CAMP Efficacy (%) [1] [%] |
| --- | --- | --- | --- | --- |
| O[C@@H]1[C@H](O)[C@@H]2C[C@@H]2[C@H]1n1cnc2c(NCCF)nc(Cl)nc21 [Compound 36, (1R,2R,3S,4R,5S)-4-(2-chloro-6-((2-fluoroethyl)amino)-9H-purin-9-yl)bicyclo[3.1.0]hexane-2,3-diol] | 8.04 | 44.9 | – | – |
| O[C@@H]1[C@H](O)[C@@H]2C[C@@H]2[C@H]1n1cnc2c(NCC(F)(F)F)nc(Cl)nc21 [Compound 37, (1R,2R,3S,4R,5S)-4-(2-chloro-6-((2,2,2-trifluoroethyl)amino)-9H-purin-9-yl)bicyclo[3.1.0]hexane-2,3-diol] | 7.89 | 49.4 | – | – |
| O[C@@H]1[C@H](O)[C@@H]2C[C@@H]2[C@H]1n1cnc2c(NCC(F)F)nc(C#CC3CC3)nc21 [Compound 38, (1R,2R,3S,4R,5S)-4-(2-(cyclopropylethynyl)-6-((2,2-difluoroethyl)amino)-9H-purin-9-yl)bicyclo[3.1.0]hexane-2,3-diol] | 7.84 | 24.7 | 8.74 | 65.1 |
| CCNc1nc(C#CC2CC2)nc2c1ncn2[C@H]1[C@H](O)[C@H](O)[C@@H]2C[C@@H]21 [Compound 39, (1R,2R,3S,4R,5S)-4-(2-(cyclopropylethynyl)-6-(ethylamino)-9H-purin-9-yl)bicyclo[3.1.0]hexane-2,3-diol] | 8.01 | 15.4 | 9.70 | 54.4 |
| O[C@@H]1[C@H](O)[C@@H]2C[C@@H]2[C@H]1n1cnc2c(NCC(F)(F)F)cc(Cl)nc21 [Compound 42, (1R,2R,3S,4R,5S)-4-(5-chloro-7-((2,2,2-trifluoroethyl)amino)-3H-imidazo[4,5-b]pyridin-3-yl)bicyclo[3.1.0]hexane-2,3-diol] | 7.36 | 45.8 | – | – |
| CCNc1nc(Cl)nc2c1ncn2[C@H]1[C@H](O)[C@H](O)[C@]2(C(F)F)C[C@H]12 [Compound 53, (1S,2R,3S,4R,5S)-4-(2-chloro-6-(ethylamino)-9H-purin-9-yl)-1-(difluoromethyl)bicyclo[3.1.0]hexane-2,3-diol] | ≤ 5.00 | 0.6 | – | – |
| Cc1cc(COc2ccc(Cl)cc2CNc2cc(Cl)nc3c2ncn3[C@H]2[C@H](O)[C@H](O)[C@@H]3C[C@@H]32)on1 [Compound 75, (1R,2R,3S,4R,5S)-4-(5-chloro-7-((5-chloro-2-((3-methylisoxazol-5-yl)methoxy)benzyl)amino)-3H-imidazo[4,5-b]pyridin-3-yl)bicyclo[3.1.0]hexane-2,3-diol] | ≤ 5.00 | 1.7 | – | – |

Results, then the compound that gave them:

| pEC50 (ADORA3) | Cell Calcium Efficacy (%) (ADORA3) | pEC50 [1] | CAMP Efficacy (%) [1] [%] | Compound |
| --- | --- | --- | --- | --- |
| 7.44 | 31.3 | – | – | O[C@@H]1[C@H](O)[C@@H]2C[C@@H]2[C@H]1n1cnc2c(NCCF)cc(Cl)nc21 [Compound 41, (1R,2R,3S,4R,5S)-4-(5-chloro-7-((2-fluoroethyl)amino)-3H-imidazo[4,5-b]pyridin-3-yl)bicyclo[3.1.0]hexane-2,3-diol] |
| 8.29 | 50.3 | – | – | CCNc1cc(Cl)nc2c1ncn2[C@H]1[C@H](O)[C@H](O)[C@@H]2C[C@@H]21 [Compound 43, (1R,2R,3S,4R,5S)-4-(5-chloro-7-(ethylamino)-3H-imidazo[4,5-b]pyridin-3-yl)bicyclo[3.1.0]hexane-2,3-diol] |
| 7.29 | 33.1 | – | – | Cc1cc(NCC(F)F)c2ncn([C@H]3[C@H](O)[C@H](O)[C@@H]4C[C@@H]43)c2n1 [Compound 47, (1R,2R,3S,4R,5S)-4-(7-((2,2-difluoroethyl)amino)-5-methyl-3H-imidazo[4,5-b]pyridin-3-yl)bicyclo[3.1.0]hexane-2,3-diol] |
| 7.42 | 13.1 | – | – | Cc1cc(NCCF)c2ncn([C@H]3[C@H](O)[C@H](O)[C@@H]4C[C@@H]43)c2n1 [Compound 48, (1R,2R,3S,4R,5S)-4-(7-((2-fluoroethyl)amino)-5-methyl-3H-imidazo[4,5-b]pyridin-3-yl)bicyclo[3.1.0]hexane-2,3-diol] |
| 7.77 | 6.8 | – | – | CCNc1cc(C)nc2c1ncn2[C@H]1[C@H](O)[C@H](O)[C@@H]2C[C@@H]21 [Compound 49, (1R,2R,3S,4R,5S)-4-(7-(ethylamino)-5-methyl-3H-imidazo[4,5-b]pyridin-3-yl)bicyclo[3.1.0]hexane-2,3-diol] |
| 7.27 | 12.3 | – | – | Cc1cc(NCc2cc(F)ccc2F)c2ncn([C@H]3[C@H](O)[C@H](O)[C@@H]4C[C@@H]43)c2n1 [Compound 50, (1R,2R,3S,4R,5S)-4-(7-((2,5-difluorobenzyl)amino)-5-methyl-3H-imidazo[4,5-b]pyridin-3-yl)bicyclo[3.1.0]hexane-2,3-diol] |
| 7.60 | 14.2 | – | – | O[C@@H]1[C@H](O)[C@@H]2C[C@@H]2[C@H]1n1cnc2c(NCC(F)F)nc(C3CC3)nc21 [Compound 58] |
| 6.96 | 7.2 | – | – | O[C@@H]1[C@H](O)[C@@H]2C[C@@H]2[C@H]1n1cnc2c(NCC(F)F)cc(C3CC3)nc21 [Compound 78] |
